Six molecules from US12116370B2, “Condensed heterocyclic compound having a bridgehead nitrogen atom or salt thereof, agricultural or horticultural insecticide comprising the compound, and method for using the insecticide” (Nihon Nohyaku Co., Ltd., priority 2019, dated 2024) can be followed below.

What all share (format): in vivo
One assay deals with Plutella xylostella. The assay can be described thus: Insecticidal test on Plutella xylostella. The conditions noted are these: in Brassica rapa, 144 h, read-out: insecticidal efficacy (mortality rate) activity level. An excerpt: Adults of P. xylostella were released onto Chinese cabbage seedlings and allowed to lay eggs thereon. At 2 days after the release of the adults, the Chinese cabbage seedlings with laid eggs were dipped for about 30 seconds in agrochemical formulations diluted to 500 ppm, each of which contained a different kind of condensed heterocyclic compound having a bridgehead nitrogen atom represented by the general formula (1) of the present invention as an active ingredient. After air-dried, the seedlings were kept in a thermostatic chamber at 25° C. At 6 days after the dip treatment, the number of hatched larvae per plot was counted, the mortality rate of P. xylostella was calculated according to the formula shown below, and the insecticidal efficacy was evaluated according to the criteria of Test Example 1. This test was conducted in triplicate using 10 adults of P. xylostella per plot.

The test system of assay [1] is L1 stage larvae of H. contortus. The assay can be described thus: Larval motility assay on Haemonchus contortus. The conditions noted are these: 96 h, 4 days, relative to DMSO only, read-out: percent motility inhibition. As for the experimental part:
Dimethyl sulfoxide (DMSO) diluted solutions of various compounds of the present invention were added at the final concentration of 50 ppm to the wells of a 96-well plate containing a predetermined conditioned medium. Twenty L1 stage larvae of H. contortus were introduced into each well of the 96-well plate. The plate was allowed to stand for 4 days, and then larval motility was examined. The percent motility inhibition in the wells of each treatment was calculated relative to the wells of treatment with DMSO only.

In assay [2] the test system is L1 stage larvae of D. immitis. In words: Larval motility assay on Dirofilaria immitis. The following applies: 72 h, 3 days, relative to DMSO only, read-out: percent motility inhibition. As for the experimental part: Five hundred L1 stage larvae of D. immitis were diluted in a predetermined conditioned medium and introduced into each well of a 96-well plate. DMSO diluted solutions of various compounds of the present invention were added at the final concentration of 50 ppm to the wells of the 96-well plate. The plate was allowed to stand for 3 days, and then larval motility was examined. The percent motility inhibition in the wells of each treatment was calculated relative to the wells of treatment with DMSO only.

The test system of another assay is Laodelphax striatellus. In words: Insecticidal test on Laodelphax striatellus. The conditions noted are these: in Oryza sativa, 192 h, read-out: insecticidal efficacy (corrected mortality rate) activity level. An excerpt:
The condensed heterocyclic compounds having a bridgehead nitrogen atom represented by the general formula (1) of the present invention or salts thereof were separately dispersed in water and diluted to 500 ppm. Rice plant seedlings (variety: Nihonbare) were dipped in the agrochemical dispersions for 30 seconds. After air-dried, each seedling was put into a separate glass test tube and inoculated with ten 3rd-instar larvae of L. striatellus, and then the glass test tubes were capped with cotton plugs. At 8 days after the inoculation, the numbers of surviving larvae and dead larvae of L. striatellus were counted, the corrected mortality rate was calculated according to the formula shown below, and the insecticidal efficacy was evaluated according to the criteria of Test Example 1.

Assay [3] deals with adults of Ctenocephalides felis. The assay can be described thus: Assay for oral parasiticidal activity against adults of Ctenocephalides felis. The conditions noted are these: read-out: mortality rate. The method, then:
Newly-emerged adults of C. felis were placed into test cages (10 adults per test cage). DMSO diluted solutions of various compounds of the present invention were added to aliquots of bovine blood at the final concentration of 50 ppm and orally administered to the adults of C. felis using a feeder. The mortality rate was examined on the following day. Aberrant adults were regarded as the dead.

Where only a bound is given, the exact number is not on record here.

As a reminder, the mortality is the share of the test organisms that died. What is called inhibition is the relative decrease from the control value, in per cent. Regarding `CCS(=O)(=O)c1cc(/C=N/OCC(F)F)cnc1-c1nc2cc(C(F)(F)F)ccn2n1` [Compound 1-7], the mortality at 500 ppm in the assay on Plutella xylostella and with Laodelphax striatellus was 100% in each case. Moreover, the inhibition at 50 ppm in assay [1] and in assay [2] was at least 50% in each case. Besides, the mortality at 50 ppm in assay [3] was at least 50%.

In the case of `CCS(=O)(=O)c1ccc(/C=N/OCC(F)(F)F)nc1-c1nc2cc(C(F)(F)C(F)(F)F)ncn2n1` [Compound 2-42, 5-ethylsulfonyl-6-(7-pentafluoroethyl-[1,2,4]triazolo[1,5-c]pyridin-2-yl)picolinaldehyde O-(2,2,2-trifluoroethyl)oxime], the mortality at 500 ppm in the assay on Plutella xylostella and in the assay with Laodelphax striatellus was 100% throughout.

Turning to `CCS(=O)(=O)c1cc(/C(=N/OCCSC)OC)cnc1-c1nc2cc(C(F)(F)F)ccn2n1` [Compound 3-1, methyl 5-ethylsulfonyl-N-(2-methylthioethoxy)-6-(7-(trifluoromethyl)-[1,2,4]triazolo[1,5-a]pyridin-2-yl)nicotinimidate], the mortality at 500 ppm in the assay with Plutella xylostella and with Laodelphax striatellus was 100% each time.

Regarding `CCS(=O)(=O)c1cc(/C(Br)=N/OCCSC)cnc1-c1nc2cc(C(F)(F)F)ccn2n1` [Compound 3-19, 5-ethylsulfonyl-N-(2-methylthioethoxy)-6-(7-trifluoromethyl-[1,2,4]triazolo[1,5-a]pyridin-2-yl)nicotinimidoyl bromide], the mortality at 500 ppm in the assay with Plutella xylostella and with Laodelphax striatellus was 100% in each case.

In the case of `CCS(=O)(=O)c1cc(/C(=N/OCCSC)C2CC2)cnc1-c1nc2cc(C(F)(F)F)ccn2n1` [Compound 3-28], the mortality at 500 ppm in the assay with Plutella xylostella and in the assay with Laodelphax striatellus was 100% each time.

Turning to `CCS(=O)(=O)c1cc(/C(=N/OCCSC)c2ccccc2)cnc1-c1nc2cc(C(F)(F)F)ccn2n1` [Compound 3-46, (5-ethylsulfonyl-6-(7-trifluoromethyl-[1,2,4]triazolo[1,5-a]pyridin-2-yl)pyridin-3-yl)phenylmethanone O-(2-methylthioethyl)oxime], the mortality at 500 ppm in the assay with Plutella xylostella and in the assay on Laodelphax striatellus was 100% in each case.
